For 30 compounds, IC50 results are on record in patent US9745289B2, “Aldosterone synthase inhibitors” (Boehringer Ingelheim International GmbH, priority 2014, dated 2017).

One may read the pIC50 as the IC50 on a negative log10 scale, so that one unit is a factor of ten. A higher pIC50 goes with a low IC50.

The structures appear in SMILES notation. pIC50: −log10 of the molar value. Bounds are passed on as bounds.

The test concerns the target cortisol synthase (CYP11B1) (Macaca fascicularis, UniProt A0A2K5ULY1). Briefly: Inhibition of Cortisol Synthesis. As to conditions: cynomolgus adrenal gland mitochondria; 150 units of CYP11B1, 11-deoxycortisol as substrate, cortisol measured as product. It counts as biochemical, cynomolgus monkey. Here is the method: The aldosterone synthase and cortisol synthase inhibition assays employ cynomolgus adrenal gland mitochondria as the source of aldosterone synthase (CYP11B2) and cortisol synthase (CYP11B1). […] Activity of CYP11B2 and CYP11B1 in these preparations is defined as the amount of enzyme that generates 1 pmol of product in one hour under the conditions described.
Assays are performed in 96-well format in a final volume of 60 μL/well, containing 100 mM potassium phosphate, pH 7.4, 1% (v/v) DMSO, and additionally, 2 μM of corticosterone and 50 units of CYP11B2 activity. Reactions are started by the addition of NADPH to 1 mM and allowed to proceed for 90 minutes at 37° C. Reactions are terminated by the addition of 60 μL of MeCN containing an internal standard for mass spectrometry. One hundred microliters are then transferred to a glass filter plate and centrifuged at 570×g for 5 minutes and the filtrate is collected. Reaction product aldosterone is quantified by mass spectrometry. To determine the assay blank value (0% activity), NADPH is omitted from some reactions.
Dose dependent inhibition is quantified by the inclusion of compound at various concentrations. Maximum activity (100%) is defined by reactions containing NADPH, but without compound.
Assays are performed as for aldosterone synthase except for the use of 150 units of CYP11B1, 11-deoxycortisol as substrate and cortisol measured as product.
With `NC(=O)c1cccc2c1OCC(c1cncc(C3(O)CCOCC3)c1)O2` (single isomer, unassigned) [Cpd 1A, 2-[5-(4-Hydroxy-tetrahydro-pyran-4-yl)-pyridin-3-yl]-2,3-dihydro-benzo[1,4]dioxine-5-carboxylic acid amide], the pIC50 is below 4.00. In the case of `NC(=O)c1cccc2c1OCC(c1cncc(C3(O)CCOCC3)c1)O2` (single isomer, unassigned) [Cpd 1B, 2-[5-(4-Hydroxy-tetrahydro-pyran-4-yl)-pyridin-3-yl]-2,3-dihydro-benzo[1,4]dioxine-5-carboxylic acid amide] it was 4.62; in that of `N#CC1(c2cncc(C3COc4c(cccc4C(N)=O)O3)c2)CC1` (single isomer, unassigned) [Cpd 2A, 2-[5-(1-Cyano-cyclopropyl)-pyridin-3-yl]-2,3-dihydro-benzo[1,4]dioxine-5-carboxylic acid amide], 7.22. Compound `N#CC1(c2cncc(C3COc4c(cccc4C(N)=O)O3)c2)CC1` (single isomer, unassigned) [Cpd 2B, 2-[5-(1-Cyano-cyclopropyl)-pyridin-3-yl]-2,3-dihydro-benzo[1,4]dioxine-5-carboxylic acid amide] gave a pIC50 of 6.64. Against the preceding compound, the pIC50 is 0.58 log units lower.

Compound `NC(=O)c1cccc2c1OCC(c1cncc(CN3CCCCS3(=O)=O)c1)O2` (single isomer, unassigned) [Cpd 3A, 2-[5-(1,1-Dioxo-1λ^6,-[1,2]thiazinan-2-ylmethyl)-pyridin-3-yl]-2,3-dihydro-benzo[1,4]dioxine-5-carboxylic acid amide] showed a pIC50 below 4.52. Under `NC(=O)c1cccc2c1OCC(c1cncc(CN3CCCCS3(=O)=O)c1)O2` (single isomer, unassigned) [Cpd 3B, 2-[5-(1,1-Dioxo-1λ^6,-[1,2]thiazinan-2-ylmethyl)-pyridin-3-yl]-2,3-dihydro-benzo[1,4]dioxine-5-carboxylic acid amide] stands 5.25.

The compound `NC(=O)c1cccc2c1OCC(c1cccnc1)O2` (single isomer, unassigned) [Cpd 4A, 2-Pyridin-3-yl-2,3-dihydro-benzo[1,4]dioxine-5-carboxylic acid amide] gave a pIC50 of 5.51. In the case of `NC(=O)c1cccc2c1OCC(c1cccnc1)O2` (single isomer, unassigned) [Cpd 4B, 2-Pyridin-3-yl-2,3-dihydro-benzo[1,4]dioxine-5-carboxylic acid amide] it was 5.60; in that of `NC(=O)c1cccc2c1OCC(c1cncc(CN3CCCC3=O)c1)O2` (single isomer, unassigned) [Cpd 5A, 2-[5-(2-Oxo-pyrrolidin-1-ylmethyl)-pyridin-3-yl]-2,3-dihydro-benzo[1,4]dioxine-5-carboxylic acid amide], below 4.52; in that of `NC(=O)c1cccc2c1OCC(c1cncc(CN3CCCC3=O)c1)O2` (single isomer, unassigned) [Cpd 5B, 2-[5-(2-Oxo-pyrrolidin-1-ylmethyl)-pyridin-3-yl]-2,3-dihydro-benzo[1,4]dioxine-5-carboxylic acid amide], 4.66.

For `CN1C(=O)CCC1c1cncc(C2COc3c(cccc3C(N)=O)O2)c1` (single isomer, unassigned) [Cpd 6AA, 2-[5-(-1-Methyl-5-oxo-pyrrolidin-2-yl)-pyridin-3-yl]-2,3-dihydro-benzo[1,4]dioxine-5-carboxylic acid amide], the pIC50 is 5.66.

The compound `CN1C(=O)CCC1c1cncc(C2COc3c(cccc3C(N)=O)O2)c1` (single isomer, unassigned) [Cpd 6AB, 2-[5-(-1-Methyl-5-oxo-pyrrolidin-2-yl)-pyridin-3-yl]-2,3-dihydro-benzo[1,4]dioxine-5-carboxylic acid amide] showed a pIC50 of 5.00. Against the preceding compound, the pIC50 is 0.66 log units lower. Under `CN1C(=O)CCC1c1cncc(C2COc3c(cccc3C(N)=O)O2)c1` (single isomer, unassigned) [Cpd 6BA, 2-[5-(-1-Methyl-5-oxo-pyrrolidin-2-yl)-pyridin-3-yl]-2,3-dihydro-benzo[1,4]dioxine-5-carboxylic acid amide] stands below 4.52. Under `CN1C(=O)CCC1c1cncc(C2COc3c(cccc3C(N)=O)O2)c1` (single isomer, unassigned) [Cpd 6BB, 2-[5-(-1-Methyl-5-oxo-pyrrolidin-2-yl)-pyridin-3-yl]-2,3-dihydro-benzo[1,4]dioxine-5-carboxylic acid amide] stands below 4.52; under `CC(=O)N1CCC[C@@H](Oc2cncc(C3COc4c(cccc4C(N)=O)O3)c2)C1` (single isomer, unassigned) [Cpd 7A], below 4.52. Under `CC(=O)N1CCC[C@@H](Oc2cncc(C3COc4c(cccc4C(N)=O)O3)c2)C1` (single isomer, unassigned) [Cpd 7B] stands 4.72. As to `CS(=O)(=O)Cc1cncc(C2COc3c(cccc3C(N)=O)O2)c1` (single isomer, unassigned) [Cpd 8A, 2-(5-Methanesulfonylmethyl-pyridin-3-yl)-2,3-dihydro-benzo[1,4]dioxine-5-carboxylic acid amide], the pIC50 was below 4.52. Under `CS(=O)(=O)Cc1cncc(C2COc3c(cccc3C(N)=O)O2)c1` (single isomer, unassigned) [Cpd 8B, 2-(5-Methanesulfonylmethyl-pyridin-3-yl)-2,3-dihydro-benzo[1,4]dioxine-5-carboxylic acid amide] stands 4.89.

`NC(=O)c1cccc2c1OCC(c1cncc(C(F)(F)F)c1)O2` (single isomer, unassigned) [Cpd 9A, 2-(5-Trifluoromethyl-pyridin-3-yl)-2,3-dihydro-benzo[1,4]dioxine-5-carboxylic acid amide] had a pIC50 of 5.28. Against the preceding compound, the pIC50 is 0.39 log units higher. Under `NC(=O)c1cccc2c1OCC(c1cncc(C(F)(F)F)c1)O2` (single isomer, unassigned) [Cpd 9B, 2-(5-Trifluoromethyl-pyridin-3-yl)-2,3-dihydro-benzo[1,4]dioxine-5-carboxylic acid amide] stands 5.66. In the case of `NC(=O)c1cccc2c1OCC(c1cncc(C3CCOCC3)c1)O2` (single isomer, unassigned) [Cpd 10A, 2-[5-(Tetrahydro-pyran-4-yl)-pyridin-3-yl]-2,3-dihydro-benzo[1,4]dioxine-5-carboxylic acid amide] it was 5.47. As to `NC(=O)c1cccc2c1OCC(c1cncc(C3CCOCC3)c1)O2` (single isomer, unassigned) [Cpd 10B, 2-[5-(Tetrahydro-pyran-4-yl)-pyridin-3-yl]-2,3-dihydro-benzo[1,4]dioxine-5-carboxylic acid amide], the pIC50 was 6.64. As to `NC(=O)c1cccc2c1OCC(c1cncc(C3(O)CCCCC3)c1)O2` (single isomer, unassigned) [Cpd 11A, 2-[5-(1-Hydroxy-cyclohexyl)-pyridin-3-yl]-2,3-dihydro-benzo[1,4]dioxine-5-carboxylic acid amide], the pIC50 is 4.62. In the case of `NC(=O)c1cccc2c1OCC(c1cncc(C3(O)CCCCC3)c1)O2` (single isomer, unassigned) [Cpd 11B, 2-[5-(1-Hydroxy-cyclohexyl)-pyridin-3-yl]-2,3-dihydro-benzo[1,4]dioxine-5-carboxylic acid amide] it was 5.36; in that of `CC(=O)N1CCC(Oc2cncc(C3COc4c(cccc4C(N)=O)O3)c2)CC1` (single isomer, unassigned) [Cpd 12A, 2-[5-(1-Acetyl-piperidin-4-yloxy)-pyridin-3-yl]-2,3-dihydro-benzo[1,4]dioxine-5-carboxylic acid amide], 4.74. Under `CC(=O)N1CCC(Oc2cncc(C3COc4c(cccc4C(N)=O)O3)c2)CC1` (single isomer, unassigned) [Cpd 12B, 2-[5-(1-Acetyl-piperidin-4-yloxy)-pyridin-3-yl]-2,3-dihydro-benzo[1,4]dioxine-5-carboxylic acid amide] stands 5.70; under `NC(=O)c1cccc2c1OCC(c1cncc(CC(=O)N3CCOCC3)c1)O2` (single isomer, unassigned) [Cpd 13A, 2-[5-(2-Morpholin-4-yl-2-oxo-ethyl)-pyridin-3-yl]-2,3-dihydro-benzo[1,4]dioxine-5-carboxylic acid amide], below 4.00.

As to `NC(=O)c1cccc2c1OCC(c1cncc(CC(=O)N3CCOCC3)c1)O2` (single isomer, unassigned) [Cpd 13B, 2-[5-(2-Morpholin-4-yl-2-oxo-ethyl)-pyridin-3-yl]-2,3-dihydro-benzo[1,4]dioxine-5-carboxylic acid amide], the pIC50 was 4.18. In the case of `NC(=O)c1cccc2c1OCC(c1cncc(CNC(=O)C3CC3)c1)O2` (single isomer, unassigned) [Cpd 14A, 2-{5-[(Cyclopropanecarbonyl-amino)-methyl]-pyridin-3-yl}-2,3-dihydro-benzo[1,4]dioxine-5-carboxylic acid amide.] it was 4.92; in that of `NC(=O)c1cccc2c1OCC(c1cncc(CNC(=O)C3CC3)c1)O2` (single isomer, unassigned) [Cpd 14B, 2-{5-[(Cyclopropanecarbonyl-amino)-methyl]-pyridin-3-yl}-2,3-dihydro-benzo[1,4]dioxine-5-carboxylic acid amide.], below 4.52.
